# Experimental data as given in patent publication US20050130986A1, “Treatment of spondylarthropathies” (priority 2003, published 2005).
# “Also recorded” adds a separate entry of the source.
# Tests used:
# [1] = tested on: patient with severe spondyloarthropathy; test: Findings in a patient with severe spondyloarthropathy (Example 1, 18 month treatment); assay type: in vivo, human; conditions: for efficacy of previous anti-rheumatic medication: patient history, used alone and in various combinations
# Text: The patient is a person who has radiologically verified bilateral sacroilitis and disease of large joints. They are also positive for the HLA-B27 antigen. The patient fulfills the ESSG criteria and the Amor criteria for spondylarthorpathy. […] In addition they have had symptoms also in small peripheral joints such as fingers and toes. […] The previous anti-rheumatic medication has included methotrexate, cyclosporine, infliximab, intramusclar.
# During the study the vital signs and blood chemistry was controlled first weekly, then biweekly and after three months once per month.
# No corticosteroid injections are given.
# [2] = tested on: patient with psoriasis arthropathy
# spondylarthropathy = conditions: cited from earlier work; for efficacy observed in spondylarthropathy: mainly in the treatment of peripheral arthritis
molecule,measurement,setting,value
"Cn1cnc([N+](=O)[O-])c1Sc1ncnc2nc[nH]c12 [azathioprine, reference compound]",efficacy of previous anti-rheumatic medication,[1],inefficient
"Cc1oncc1C(=O)Nc1ccc(C(F)(F)F)cc1 [leflunomide, reference compound]",efficacy of previous anti-rheumatic medication,[1],inefficient
"CN(Cc1cnc2nc(N)nc(N)c2n1)c1ccc(C(=O)N[C@@H](CCC(=O)O)C(=O)O)cc1 [methotrexate, reference compound]",efficacy of previous anti-rheumatic therapy,"[2]; patient history, methotrexate 20 mg per week, cyclosporine 150 mg, discontinued",lack of efficacy
same,efficacy of previous anti-rheumatic medication,[1],inefficient
same,efficacy in sporiasis arthropathy,spondylarthropathy; in vivo,some efficacy
same,efficacy observed in spondylarthropathy,spondylarthropathy,minor efficacy
"Cc1ccc(NC(=O)c2ccc(CN3CCN(C)CC3)cc2)cc1Nc1nccc(-c2cccnc2)n1 [study drug, 4-[(4-methyl-1-piperazin-1-ylmethyl)-N-[4-methyl-3-[4-(3-pyridinyl)-2-pyrimidinyl]amino]phenyl]benzamide Monomethanesulfonate]",side effects or infections during the treatment,[2]; 3 month study,No serious side effects or infections; also recorded: slight tiredness and mild muscle cramps
same,number of swollen joints,"[2]; after three month treatment, from 5, oral, up to 400 mg per day, added to naproxen, injected joints omitted",2
same,BASDAI score,"[2]; after three month treatment, from 6.5",3.1
same,number of tender joints,"[2]; after three month treatment, from 10",0
same,general pain (VAS),"[2]; after three month treatment, from 33 mm",12 mm
same,night pain experienced by the patient (VAS),"[2]; after three month treatment, from 34 mm",4 mm
same,ESR,"[2]; after three month treatment, from 40",12
same,disease activity (VAS),"[2]; after three month treatment, from 41 mm",23 mm
same,CRP,"[2]; after three month treatment, from 47",25
same,infections during the treatment,[1]; 18 months of treatment,no significant infections
same,swollen joint count,"[1]; after 18 month treatment, 31 before treatment, oral, up to 400 mg per day, added to hydroxychloroquine, prednisone, ibuprofen",5
same,side effects,[1]; after 18 months of treatment,no serious side effects have been observed; also recorded: slight dryness of the skin
same,health assessment questionnaire score (HAQ),"[1]; after 18 months of treatment, 1.5 before treatment, high score = high disability",0.75
same,time after start at which antirheumatic effect could be observed (movements in shoulder joints improved),[1]; after study drug was started,two
same,CRP,"[1]; after the treatment (18 months), 42 mg/L before treatment",11 mg/L
same,tender joint count,"[1]; after the treatment (18 months), 10 before treatment",1
same,erythrocyte sedimentation rate,"[1]; after the treatment (18 months), 28 mm/h before treatment",11 mm/h
same,"pain experienced by the patient, visual analogue scale (VAS)","[1]; after treatment (18 months), 37 mm before treatment",11 mm
same,disease activity as estimated by the patient (VAS),"[1]; after treatment (18 months), 69 mm before treatment",11 mm
O=C(O)c1cc(/N=N/c2ccc(S(=O)(=O)Nc3ccccn3)cc2)ccc1O [sulfasalazine],efficacy observed in spondylarthropathy,spondylarthropathy,minor efficacy
infliximab,efficacy of previous anti-rheumatic medication,[1],inefficient
